Structures are written as SMILES. Where only a bound is given, the exact number is not on record here.

The text below walks through data of ChEMBL document CHEMBL1154528, “Discovery of a novel series of quinoxalines as inhibitors of c-Met kinase” (Bioorg Med Chem Lett, 2009).

The target in assay [1] is Vascular endothelial growth factor receptor 2 (Homo sapiens) (UniProt P35968). Put plainly: Inhibition of KDR at 10 uM. The arrangement: scale not given: the % may be the effect or the level left.
A short description of assay [2]: Inhibition of Flt at 10 uM. Further details: scale not given: the % may be the effect or the level left.

Chain of Vascular endothelial growth factor receptor 2 (Homo sapiens) (P35968 whole entry): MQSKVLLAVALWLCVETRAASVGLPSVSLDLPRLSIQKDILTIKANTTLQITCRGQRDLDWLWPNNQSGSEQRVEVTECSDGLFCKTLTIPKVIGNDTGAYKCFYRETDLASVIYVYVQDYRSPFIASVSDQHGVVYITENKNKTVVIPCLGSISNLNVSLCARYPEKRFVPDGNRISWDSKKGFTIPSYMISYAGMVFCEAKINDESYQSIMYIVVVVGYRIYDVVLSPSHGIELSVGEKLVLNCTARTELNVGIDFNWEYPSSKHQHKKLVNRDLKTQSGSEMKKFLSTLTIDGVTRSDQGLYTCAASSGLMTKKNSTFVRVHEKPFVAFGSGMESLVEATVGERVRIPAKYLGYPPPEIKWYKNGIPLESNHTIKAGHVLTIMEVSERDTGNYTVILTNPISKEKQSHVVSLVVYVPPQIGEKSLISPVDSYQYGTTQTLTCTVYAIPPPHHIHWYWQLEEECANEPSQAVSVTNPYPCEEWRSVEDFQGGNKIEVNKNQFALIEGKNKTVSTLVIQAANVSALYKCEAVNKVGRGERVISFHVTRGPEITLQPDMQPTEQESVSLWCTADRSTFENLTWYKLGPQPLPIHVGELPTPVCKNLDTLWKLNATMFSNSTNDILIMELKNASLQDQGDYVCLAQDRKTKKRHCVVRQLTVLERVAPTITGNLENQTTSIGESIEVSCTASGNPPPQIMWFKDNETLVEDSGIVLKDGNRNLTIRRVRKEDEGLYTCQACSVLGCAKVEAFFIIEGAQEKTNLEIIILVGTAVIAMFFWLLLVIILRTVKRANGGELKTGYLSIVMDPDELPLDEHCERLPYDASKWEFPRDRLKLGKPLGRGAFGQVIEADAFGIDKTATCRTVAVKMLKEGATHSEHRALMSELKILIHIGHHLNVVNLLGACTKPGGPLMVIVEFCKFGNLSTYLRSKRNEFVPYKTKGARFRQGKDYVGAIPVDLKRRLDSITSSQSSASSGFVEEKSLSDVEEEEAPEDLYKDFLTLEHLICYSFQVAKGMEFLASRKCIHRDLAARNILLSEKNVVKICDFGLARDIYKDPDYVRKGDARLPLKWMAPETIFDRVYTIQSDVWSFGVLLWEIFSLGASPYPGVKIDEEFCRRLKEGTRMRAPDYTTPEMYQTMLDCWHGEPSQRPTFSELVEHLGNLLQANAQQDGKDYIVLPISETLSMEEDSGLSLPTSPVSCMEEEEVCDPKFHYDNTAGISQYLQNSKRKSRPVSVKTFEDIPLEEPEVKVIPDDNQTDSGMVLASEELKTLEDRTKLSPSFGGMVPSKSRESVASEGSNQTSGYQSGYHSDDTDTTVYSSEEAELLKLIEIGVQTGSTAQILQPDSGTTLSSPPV

With `CN1CCN(c2cnc3cc(C(F)(F)F)cc(-c4ccccc4)c3n2)CC1`, the Activity in assay [1] and in assay [2] was under 30% in each case.
